Reference: patent publication US10201558B2, “Compositions of selenoorganic compounds and methods of use thereof” (Alltech, Inc., priority 2014, dated 2019)
Entries after “also recorded” stand apart in the source; their conditions may differ.

Legend:
[1] = system: Iba-1; experiment: Western blot of Iba-1 in APP/PS1 mouse brains; assay type: in vivo; conditions: APP/PS1 mice, Compound C diet vs control diet
Protocol: (§1) Male APPΔNLh/ΔNLh×PS1P246 L/246 L knock-in model mice of Alzheimer's disease (abbreviated APP/PS1) were genotyped using standard primers for human APP (Amyloid Precursor Protein) and human PS1 (PSEN1). These APP/PS1 mice starting at the age of 6 months, were fed either a control diet containing normal levels of selenium (0.3 ppm from plant and inorganic selenium salt sources) or an experimental diet containing Compound C (the control diet to which was added 1 ppm Se from Compound C) for 6 months. […]
(§2) Frozen hemispheres of control- and Compound C-treated APP/PS1 mice were weighed and homogenized in PBS buffer, and then subsequently extracted with RIPA buffer (Sigma) containing complete proteinase and phosphatase inhibitors (Fisher Scientific). Protein levels in the samples were determined by micro-BCA protein analysis according to the manufacturer's protocol. […] Positive signals on the membrane blots were detected using Amersham's enhanced chemiluminescence Western Blotting Prime Detection reagents (GE healthcare Lifescience, Pittsburgh, Pa.). Images of these luminescence signals on the membrane blots were captured using the LI-COR Odyssey Fc Image system (Lincoln, Nebr.). Protein band densities in Western blots were determined using NIH Image J software, and then normalized by Actb levels in each samples to obtain the protein levels.

[2] = system: NOTCH signaling molecules in IMR-32 cells; experiment: QRT-PCR of key NOTCH signaling molecules in IMR-32 cells; assay type: cell-based, human; conditions: 150 ppb; for HER2 mRNA expression (mean ± sem) / HES1 mRNA expression (mean ± sem) / HEY1 mRNA expression (mean ± sem) / NFKB1 mRNA expression (mean ± sem) / NFKB2 mRNA expression (mean ± sem) / NOTCH 1 mRNA expression (mean ± sem) / NOTCH 2 mRNA expression (mean ± sem) / NOTCH 3 mRNA expression (mean ± sem) / RBPJ mRNA expression (mean ± sem): control 100
Protocol: QRT-PCR analysis of several Notch signaling molecules was performed in IMR-32 cells to test if Compound C is toxic to the Notch signaling in vitro. In brief, IMR-32 cells were treated with a water control and 150 ppb Compound C in 10% FBS containing MEM media for 6 hours, 24 hours, and 48 hours. These molecules were selected based on the IPA GO search.

[3] = system: APOE; experiment: QRT-PCR of APOE mRNA in IMR-32 cells (normal, control KD, FOXO4 KD); assay type: cell-based, human; conditions: 24 hours
Protocol: IMR-32 cells were cultured on 12-well plates for 24 hours and then incubated with FOXO4 siRNA lentiviruses (SC-29650V, Santa Cruz) or control siRNA lentiviruses (sc-108080, Santa Cruz) in the presence of Polybrene (5 μg/ml, Santa Cruz) for 24 hours according to the manufacturer's protocol. These lentiviral siRNA-transfected cells were amplified in normal media for 3 days and then incubated with puromycin for 9-14 days to obtain the stable Control KD (stably transfected with the control siRNAs) and FOXO4KD (stably transfected with Foxo4 siRNAs) cells. These control and Foxo4 KD cells were subjected to cell survival, mitochondrial potential and RNA analysis.
Human IMR-32 cells were seeded on gelatinized 6-well (6.5×10^5 cells/well) or 24-well (1.3×10^5 cells/well) plates. Cells were treated with control (0 ppb) or various compounds for 6 hours or 24 hours. Total RNA from these cells was isolated using Trizol (Invitrogen) according to the manufacturer's protocol, and then incubated with DNase I to remove any potential contaminated genomic DNA. Then RNA samples were subjected to real-time PCR analysis using the Applied-Bioscience's RT kit and predesigned Taqman probes (Invitrogen), as described previously (Lan et al EMBO J 2003). The mRNA levels of UCP1, UCP2, UCP3, SLC25A27 (UCP4), SLC25A14 (UCP5), PSEN1, Nicastrin, GSK3B, MAPK11-14, PPARG, APOE, RCAN1, RCAN1.1, G6PC, INSR, IGF1R and FOXO4 were measured. Three to six samples were analyzed in each treatment group. Data were normalized by Actin B (ACTB) or Glyceraldehyde Phosphate Dehydrogenase (GAPDH) mRNA levels in each sample and are presented as mean±SEM of 3-6 samples.
To explore this possibility, IMR-32 cells were treated with 150 ppb Compound C, Compound D or Compound E (150 ppb) for 6 hours and 24 hours, and then subjected to Western blot and QRT-PCR analyses. […] Therefore, Compound C and Compound D are downregulators of PPARG in IMR-32 cells at both mRNA and protein levels. […]

[4] = system: Insulin Degrading Enzyme (IDE); experiment: Western blot of insulin degrading enzyme in APP/PS1 mouse brains; assay type: in vivo; conditions: APP/PS1 mice, Compound C diet vs control diet
Protocol: as §1, §2

SMILES: C[Se]C[C@H]1O[C@@H](n2cnc3c(N)ncnc32)C(O)C1O (stereo in doubt) [Compound C, 5′-deoxy-5′-methylselenoadenosine]
- Iba-1 protein levels in the brains [1]: reduced; also recorded: decreased
- NOTCH 4 mRNA expression ([2]; 6 hours treatment (cell spans control and #C)): Undetected
- HER2 mRNA expression (mean ± sem) ([2]; 6 hours treatment): 96 ± 4 (4)
- HES1 mRNA expression (mean ± sem) ([2]; 6 hours treatment): 101 ± 6 (4)
- HEY1 mRNA expression (mean ± sem) ([2]; 6 hours treatment): 120 ± 9 (4)
- NFKB1 mRNA expression (mean ± sem) ([2]; 6 hours treatment): 112 ± 7 (4)
- NFKB2 mRNA expression (mean ± sem) ([2]; 6 hours treatment): 103 ± 7 (4)
- NOTCH 1 mRNA expression (mean ± sem) ([2]; 6 hours treatment): 94 ± 7 (4)
- NOTCH 2 mRNA expression (mean ± sem) ([2]; 6 hours treatment): 95 ± 16 (4)
- NOTCH 3 mRNA expression (mean ± sem) ([2]; 6 hours treatment): 95 ± 7 (4)
- RBPJ mRNA expression (mean ± sem) ([2]; 6 hours treatment): trend of increased expression
- RBPJ mRNA expression (mean ± sem) ([2]; 6 hours treatment, listed as #C): 144 ± 12 (4)
- expression of all tested Notch signaling genes ([2]; 6 hours, 24 hours and 48 hours): did not significantly inhibit
- NOTCH 4 mRNA expression ([2]; 24 hours treatment (cell spans control and #C)): Undetected
- HER2 mRNA expression (mean ± sem) ([2]; 24 hours treatment): 100 ± 11
- HES1 mRNA expression (mean ± sem) ([2]; 24 hours treatment): 102 ± 18
- HEY1 mRNA expression (mean ± sem) ([2]; 24 hours treatment): 121 ± 10
- NFKB1 mRNA expression (mean ± sem) ([2]; 24 hours treatment): 106 ± 11
- NFKB2 mRNA expression (mean ± sem) ([2]; 24 hours treatment): 85 ± 28 (3)
- NOTCH 1 mRNA expression (mean ± sem) ([2]; 24 hours treatment): 89 ± 10 (3)
- NOTCH 2 mRNA expression (mean ± sem) ([2]; 24 hours treatment): 103 ± 27
- NOTCH 3 mRNA expression (mean ± sem) ([2]; 24 hours treatment): 105 ± 14
- RBPJ mRNA expression (mean ± sem) ([2]; 24 hours treatment): 119 ± 37
- HER2 mRNA expression (mean ± sem) ([2]; 48 hours treatment): 106 ± 23
- HES1 mRNA expression (mean ± sem) ([2]; 48 hours treatment): 115 ± 9 (4)
- HEY1 mRNA expression (mean ± sem) ([2]; 48 hours treatment): 115 ± 11
- NFKB1 mRNA expression (mean ± sem) ([2]; 48 hours treatment): 109 ± 12
- NFKB2 mRNA expression (mean ± sem) ([2]; 48 hours treatment): 97 ± 14 (4)
- NOTCH 1 mRNA expression (mean ± sem) ([2]; 48 hours treatment): 90 ± 9 (3)
- NOTCH 2 mRNA expression (mean ± sem) ([2]; 48 hours treatment): 94 ± 40 (3)
- NOTCH 3 mRNA expression (mean ± sem) ([2]; 48 hours treatment): 81 ± 23 (4)
- RBPJ mRNA expression (mean ± sem) ([2]; 48 hours treatment): 97 ± 7 (4)
- APOE mRNA expression ([3]; FOXO4KD cells, 75 ppb and 150 ppb): not significantly altered
- APOE mRNA levels ([3]; IMR-32 cells, 150 ppb): significantly decreased
- APOE mRNA levels ([3]; control normal cells, 75 ppb and 150 ppb): attenuated
- IDE protein levels in the brains [4]: increased; also recorded: elevated
